The text below walks through data of patent US10144742B2 (Millennium Pharmaceuticals, Inc., priority 2014, dated 2018).

One experiment deals with hNAMPT protein (Homo sapiens (Human), UniProt P43490). In words: NAMPT enzyme assay (TR-FRET/HTRF, BodiPY ligand, anti 6His-Tb). The note with it: for IC50: read-out: IC50; for inhibition at 1 µM: read-out: Percent Inhibition. The format is binding. In outline: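 TR-FRET binding assay in which His-tagged human NAMPT with anti-6His-Tb is displaced by compound from a BodiPY ligand, incubated 1 h at rt in the dark. Excitation was at 320 nm, with the 520/486 nm emission ratio read. IC50 was fitted from inhibition relative to DMSO controls.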

The subject of another experiment is PC3 cells. The experiment can be described thus: PC3 growth inhibition (Cell-titer glo, 72 hours). The format is cell-based. The settings on record: Homo sapiens, PC-3; compound concentration 1.667 μM; PC3 cells, 72 hours, Cell-titer glo; read-out: Percent Inhibition (PC3 growth inhibition). The gist of the method: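 PC3 cells in RPMI1640 seeded overnight at 37 °C, 5% CO2, then exposed to compound diluted in AIM serum-free medium for 72 h. Viability by CellTiter-Glo luminescence vs DMSO controls; single-concentration % remaining viability (1 μM or 1.667 μM), or GI50/LD50 from curves.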

The mark [1] stands for this setting: NAMPT inhibition at compound concentration 1 μM.
Where [2] appears, read: NAMPT inhibition, IC50 range class.

Where two headings read alike, the source gives them in different places.

hNAMPT protein, sequence (P43490 whole entry): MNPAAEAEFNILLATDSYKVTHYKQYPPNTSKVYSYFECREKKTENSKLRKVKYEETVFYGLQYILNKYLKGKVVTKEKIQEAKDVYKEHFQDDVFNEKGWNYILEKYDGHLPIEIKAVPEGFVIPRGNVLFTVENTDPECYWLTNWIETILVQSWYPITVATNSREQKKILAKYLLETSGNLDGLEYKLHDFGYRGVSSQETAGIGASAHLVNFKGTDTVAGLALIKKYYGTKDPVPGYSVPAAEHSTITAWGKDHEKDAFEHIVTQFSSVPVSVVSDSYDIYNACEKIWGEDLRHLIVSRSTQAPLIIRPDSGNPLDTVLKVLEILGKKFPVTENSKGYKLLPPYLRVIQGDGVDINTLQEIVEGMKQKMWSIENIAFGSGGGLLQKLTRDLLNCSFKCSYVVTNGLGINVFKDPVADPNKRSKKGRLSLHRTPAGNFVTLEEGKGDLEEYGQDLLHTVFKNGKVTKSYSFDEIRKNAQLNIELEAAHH

Take `CC(C)Sc1nc2ccc(C(=O)NCCCc3ncc[nH]3)cc2nc1-c1ccc(F)cc1` [Compound I-375, 3-(4-Fluorophenyl)-N-[3-(1H-imidazol-2-yl)propyl]-2-(isopropylsulfanyl)quinoxaline-6-carboxamide]: the IC50 (commonly the concentration that gives 50% inhibition) at hNAMPT protein (NAMPT IC50 range class) fell in the range of 100 to 500 nM. For the same compound, the inhibition (usually the change of the read-out against control, counted positive when it falls) at 1 µM on hNAMPT protein (compound concentration 1 μM) was determined as 80%. Besides, the inhibition at 1.667 µM with PC3 cells was found to be 2%.

`O=C(NCCc1ncc[nH]1)c1ccc2nc(-c3ccc(F)cc3)c(-c3cccc(Cl)c3)nc2c1` [Compound I-376, 3-(3-chlorophenyl)-2-(4-fluorophenyl)-N-[2-(1H-imidazol-2-yl)ethyl]quinoxaline-6-carboxamide]: at hNAMPT protein (NAMPT IC50 range class), the half-inhibitory concentration (IC50) was 500 to 1000 nM. Moreover, the inhibition at 1 µM on hNAMPT protein (compound concentration 1 μM) amounted to 30%. In the experiment with PC3 cells, the inhibition at 1.667 µM amounted to 52%.

Turning to `N#Cc1cc(-c2nc3cc(C(=O)NCCCc4ncc[nH]4)ccc3nc2-c2ccc(F)cc2)ccc1Cl` [Compound I-377, 3-(4-chloro-3-cyanophenyl)-2-(4-fluorophenyl)-N-[3-(1H-imidazol-2-yl)propyl]quinoxaline-6-carboxamide], at hNAMPT protein (NAMPT IC50 range class), the IC50 fell in the range of 100 to 500 nM. Further, the inhibition at 1 µM on hNAMPT protein (compound concentration 1 μM) is 85%. Also, the inhibition at 1.667 µM in the experiment on PC3 cells was 2%.

In the case of `O=C(NCCCc1ncc[nH]1)c1ccc2nc(OCC3CC4(COC4)C3)c(-c3ccc(F)cc3)nc2c1` [Compound I-378, 3-(4-fluorophenyl)-N-[3-(1H-imidazol-2-yl)propyl]-2-(2-oxaspiro[3.3]hept-6-ylmethoxy)quinoxaline-6-carboxamide], the IC50 at hNAMPT protein (NAMPT IC50 range class) was below 100 nM. On hNAMPT protein (compound concentration 1 μM), the inhibition at 1 µM was above 99%. Moreover, in the experiment with PC3 cells, the inhibition at 1.667 µM amounted to 2%.

Regarding `O=C(NCCCc1ncc[nH]1)c1ccc2nc(OCC3CCOC3)c(-c3ccc(F)cc3)nc2c1` (stereo not drawn) [Compound I-379, 3-(4-fluorophenyl)-N-[3-(1H-imidazol-2-yl)propyl]-2-(tetrahydrofuran-3-ylmethoxy)quinoxaline-6-carboxamide], the IC50 at hNAMPT protein (NAMPT IC50 range class) is below 100 nM. For the same compound, the inhibition at 1 µM at hNAMPT protein (compound concentration 1 μM) amounted to 100%. For the same compound, the inhibition at 1.667 µM in the experiment on PC3 cells came to 2%.

Regarding `CC(C)Oc1nc2ccc(C(=O)NCCCc3cn[nH]c3)cc2nc1-c1ccc(F)cc1` [Compound I-380, 3-(4-Fluorophenyl)-2-isopropoxy-N-[3-(1H-pyrazol-4-yl)propyl]quinoxaline-6-carboxamide], the concentration for half-maximal inhibition (IC50) on hNAMPT protein (NAMPT IC50 range class) is 500 to 1000 nM. Moreover, at hNAMPT protein (compound concentration 1 μM), the inhibition at 1 µM was 55%. The inhibition at 1.667 µM with PC3 cells stood at 2%.

Consider `O=C(NCCCc1ncc[nH]1)c1ccc2nc(-c3ccc(F)cc3)c(-c3cc(C(F)(F)F)ccc3Cl)nc2c1` [Compound I-381, 3-[2-chloro-5-(trifluoromethyl)phenyl]-2-(4-fluorophenyl)-N-[3-(1H-imidazol-2-yl)propyl]quinoxaline-6-carboxamide], for which, on hNAMPT protein (NAMPT IC50 range class), the 50% inhibitory concentration (IC50) is below 100 nM. For the same compound, on hNAMPT protein (compound concentration 1 μM), the inhibition at 1 µM turned out to be 96%. Further, the inhibition at 1.667 µM in the experiment on PC3 cells came to 2%.

With `CCc1ccc(-c2nc3cc(C(=O)NCCCc4ncc[nH]4)ccc3nc2-c2ccc(F)cc2)cc1` [Compound I-382, 3-(4-ethylphenyl)-2-(4-fluorophenyl)-N-[3-(1H-imidazol-2-yl)propyl]quinoxaline-6-carboxamide], the half-maximal inhibitory concentration (IC50) at hNAMPT protein (NAMPT IC50 range class) was 500 to 1000 nM. Further, the inhibition at 1 µM on hNAMPT protein (compound concentration 1 μM) amounted to 55%. Moreover, the inhibition at 1.667 µM in the experiment on PC3 cells stood at 3%.

Regarding `C[C@@H]1CN(c2nc3ccc(C(=O)NCCCc4ncc[nH]4)cc3nc2-c2ccc(F)cc2)C[C@H](C)O1` [Compound I-383, 2-[cis-2,6-dimethylmorpholin-4-yl]-3-(4-fluorophenyl)-N-[3-(1H-imidazol-2-yl)propyl]quinoxaline-6-carboxamide], the IC50 on hNAMPT protein (NAMPT IC50 range class) is below 100 nM. The inhibition at 1 µM at hNAMPT protein (compound concentration 1 μM) was determined as 99%. For the same compound, the inhibition at 1.667 µM in the experiment with PC3 cells is 2%.

For `CS(=O)(=O)c1cccc(-c2nc3cc(C(=O)NCCCc4ncc[nH]4)ccc3nc2-c2ccc(F)cc2)c1` [Compound I-384, 2-(4-fluorophenyl)-N-[3-(1H-imidazol-2-yl)propyl]-3-[3-(methylsulfonyl)phenyl]quinoxaline-6-carboxamide], the IC50 on hNAMPT protein (NAMPT IC50 range class) lay within 100 to 500 nM. The inhibition at 1 µM at hNAMPT protein (compound concentration 1 μM) came to 84%. In the experiment on PC3 cells, the inhibition at 1.667 µM is 2%.

`CC(C)Oc1nc2ccc(C(=O)NCCCc3ncc[nH]3)cc2nc1-c1cccs1` [Compound I-385, N-[3-(1H-imidazol-2-yl)propyl]-2-isopropoxy-3-(2-thienyl)quinoxaline-6-carboxamide]: the IC50 on hNAMPT protein (NAMPT IC50 range class) is below 100 nM. Moreover, the inhibition at 1 µM on hNAMPT protein (compound concentration 1 μM) was above 99%. Further, the inhibition at 1.667 µM in the experiment with PC3 cells is 2%.

As to `Cn1ccc2cc(-c3nc4cc(C(=O)NCCCc5ncc[nH]5)ccc4nc3-c3ccc(F)cc3)ccc21` [Compound I-386, 2-(4-fluorophenyl)-N-[3-(1H-imidazol-2-yl)propyl]-3-(1-methyl-1H-indol-5-yl)quinoxaline-6-carboxamide], the IC50 on hNAMPT protein (NAMPT IC50 range class) is 100 to 500 nM. Besides, the inhibition at 1 µM at hNAMPT protein (compound concentration 1 μM) came to 90%. In addition, in the experiment with PC3 cells, the inhibition at 1.667 µM was 2%.

Consider `O=C(NCCCc1nnc[nH]1)c1ccc2nc(-c3ccc(F)cc3)c(-c3ccc(F)cc3)nc2c1` [Compound I-387, 2,3-bis(4-fluorophenyl)-N-[3-(4H-1,2,4-triazol-3-yl)propyl]quinoxaline-6-carboxamide], for which, on hNAMPT protein (NAMPT IC50 range class), the IC50 lay in the range of 500 to 1000 nM. Besides, on hNAMPT protein (compound concentration 1 μM), the inhibition at 1 µM is 61%. Moreover, the inhibition at 1.667 µM in the experiment with PC3 cells was 5%.

In the case of `N#Cc1cc(-c2nc3cc(C(=O)NCCCc4ncc[nH]4)ccc3nc2-c2ccc(F)cc2)ccc1F` [Compound I-388, 3-(3-cyano-4-fluorophenyl)-2-(4-fluorophenyl)-N-[3-(1H-imidazol-2-yl)propyl]quinoxaline-6-carboxamide], the IC50 at hNAMPT protein (NAMPT IC50 range class) is 100 to 500 nM. Also, at hNAMPT protein (compound concentration 1 μM), the inhibition at 1 µM was 81%. For the same compound, the inhibition at 1.667 µM with PC3 cells came out at 3%.

With `O=C(NCCCc1ncc[nH]1)c1ccc2nc(-n3ccc4cnccc43)c(-c3ccc(F)cc3)nc2c1` [Compound I-389, 3-(4-fluorophenyl)-N-[3-(1H-imidazol-2-yl)propyl]-2-(1H-pyrrolo[3,2-c]pyridin-1-yl)quinoxaline-6-carboxamide], the IC50 on hNAMPT protein (NAMPT IC50 range class) was below 100 nM. Besides, the inhibition at 1 µM on hNAMPT protein (compound concentration 1 μM) came out at 93%. The inhibition at 1.667 µM in the experiment on PC3 cells amounted to 2%.

On to `O=C(NCCCc1ncc[nH]1)c1ccc2nc(OCCc3cnoc3)c(-c3ccc(F)cc3)nc2c1` [Compound I-390, 3-(4-fluorophenyl)-N-[3-(1H-imidazol-2-yl)propyl]-2-[2-(isoxazol-4-yl)ethoxy]quinoxaline-6-carboxamide], for which, on hNAMPT protein (NAMPT IC50 range class), the IC50 was below 100 nM. The inhibition at 1 µM at hNAMPT protein (compound concentration 1 μM) is 99%. Also, the inhibition at 1.667 µM with PC3 cells came to 2%.

In the case of `COc1nccc(-c2nc3cc(C(=O)NCCCc4ncc[nH]4)ccc3nc2-c2ccc(F)cc2)c1F` [Compound I-391, 3-(3-fluoro-2-methoxypyridin-4-yl)-2-(4-fluorophenyl)-N-[3-(1H-imidazol-2-yl)propyl]quinoxaline-6-carboxamide], at hNAMPT protein (NAMPT IC50 range class), the IC50 lay within 100 to 500 nM. On hNAMPT protein (compound concentration 1 μM), the inhibition at 1 µM worked out at 83%. Moreover, the inhibition at 1.667 µM in the experiment on PC3 cells came out at 3%.

Consider `COc1cc(-c2nc3cc(C(=O)NCCCc4ncc[nH]4)ccc3nc2OC(C)C)c(F)cn1` [Compound I-392, 3-(5-fluoro-2-methoxypyridin-4-yl)-N-[3-(1H-imidazol-2-yl)propyl]-2-isopropoxyquinoxaline-6-carboxamide], for which the IC50 at hNAMPT protein (NAMPT IC50 range class) was 100 to 500 nM. Besides, the inhibition at 1 µM on hNAMPT protein (compound concentration 1 μM) was determined as 91%. Also, in the experiment with PC3 cells, the inhibition at 1.667 µM is 1%.

As to `N#Cc1ccc(Cl)c(-c2nc3cc(C(=O)NCCCc4ncc[nH]4)ccc3nc2-c2ccc(F)cc2)c1` [Compound I-393, 3-(2-chloro-5-cyanophenyl)-2-(4-fluorophenyl)-N-[3-(1H-imidazol-2-yl)propyl]quinoxaline-6-carboxamide], on hNAMPT protein (NAMPT IC50 range class), the IC50 was below 100 nM. The inhibition at 1 µM at hNAMPT protein (compound concentration 1 μM) was found to be 98%. The inhibition at 1.667 µM with PC3 cells is 2%.

Take `Cc1cncc(-c2nc3cc(C(=O)NCCCc4ncc[nH]4)ccc3nc2-c2ccc(F)cc2)c1` [Compound I-394, 2-(4-fluorophenyl)-N-[3-(1H-imidazol-2-yl)propyl]-3-(5-methylpyridin-3-yl)quinoxaline-6-carboxamide]: the IC50 at hNAMPT protein (NAMPT IC50 range class) fell in the range of 100 to 500 nM. Further, the inhibition at 1 µM at hNAMPT protein (compound concentration 1 μM) was 74%. Moreover, the inhibition at 1.667 µM in the experiment with PC3 cells was determined as 3%.

Regarding `Cc1cccc(-c2nc3cc(C(=O)NCCCc4ncc[nH]4)ccc3nc2-c2ccc(F)cc2)c1` [Compound I-395, 2-(4-fluorophenyl)-N-[3-(1H-imidazol-2-yl)propyl]-3-(3-methylphenyl)quinoxaline-6-carboxamide], at hNAMPT protein (setting [1]), the inhibition at 1 µM is 83%. Moreover, the IC50 on hNAMPT protein (setting [2]) is 100 to 500 nM. Also, the inhibition at 1.667 µM in the experiment on PC3 cells was found to be 2%.

For `O=C(NCCCc1ncc[nH]1)c1ccc2nc(OCc3ccccn3)c(-c3ccc(F)cc3)nc2c1` [Compound I-396, 3-(4-fluorophenyl)-N-[3-(1H-imidazol-2-yl)propyl]-2-(pyridin-2-ylmethoxy)quinoxaline-6-carboxamide], the inhibition at 1 µM on hNAMPT protein (setting [1]) came out at 98%. Further, on hNAMPT protein (setting [2]), the 50% inhibitory concentration (IC50) was below 100 nM. Moreover, in the experiment with PC3 cells, the inhibition at 1.667 µM was found to be 2%.

With `O=C(NCCCc1ncc[nH]1)c1ccc2nc(-c3ccc(F)cc3)c(-c3ccc(Cl)c(Cl)c3)nc2c1` [Compound I-397, 3-(3,4-dichlorophenyl)-2-(4-fluorophenyl)-N-[3-(1H-imidazol-2-yl)propyl]quinoxaline-6-carboxamide], the inhibition at 1 µM on hNAMPT protein (setting [1]) stood at 97%. Further, the IC50 on hNAMPT protein (setting [2]) is below 100 nM. Further, the inhibition at 1.667 µM with PC3 cells turned out to be 2%.

As for `COc1cccc(-c2nc3cc(C(=O)NCCCc4ncc[nH]4)ccc3nc2-c2ccc(F)cc2)c1F` [Compound I-398, 3-(2-fluoro-3-methoxyphenyl)-2-(4-fluorophenyl)-N-[3-(1H-imidazol-2-yl)propyl]quinoxaline-6-carboxamide], on hNAMPT protein (setting [1]), the inhibition at 1 µM is 93%. In addition, at hNAMPT protein (setting [2]), the IC50 was below 100 nM. In addition, in the experiment with PC3 cells, the inhibition at 1.667 µM worked out at 2%.
